This is an account of results in ChEMBL document CHEMBL1144172, “Discovery of novel series of benzoic acid derivatives containing biphenyl ether moiety as potent and selective human beta(3)-adrenergic receptor agonists: Part IV” (Bioorg Med Chem Lett, 2008).

Test [1] deals with Beta-3 adrenergic receptor (Homo sapiens, UniProt P13945). Description: Agonist activity at human cloned adrenergic beta3 receptor expressed in CHO cells assessed as cAMP accumulation. The class given is functional, cell-based. A general note: cAMP levels reflect the balance of adenylyl cyclase and phosphodiesterase activity.
The subject of a further test is CHO. The experiment in a line: Selectivity for human cloned adrenergic beta-1 receptor over human cloned adrenergic beta3 receptor expressed in CHO cells. Type of test: cell-based.
In test [2] the target is Beta-3 adrenergic receptor (Canis lupus familiaris, UniProt O02662). Description: Agonist activity at dog cloned adrenergic beta3 receptor expressed in CHO cells assessed as cAMP accumulation. Type of test: functional, cell-based.
Test [3] addresses Beta-3 adrenergic receptor (Canis lupus familiaris) (UniProt O02662). Description: Agonist activity at dog cloned adrenergic beta3 receptor assessed as inhibition of carbachol-induced increase in intravesical pressure at 10 ug/kg, iv. Type of test: functional.
For test [4], the target named is Beta-1 adrenergic receptor (Homo sapiens, UniProt P08588).
Description: Agonist activity at human cloned adrenergic beta-1 receptor expressed in CHO cells assessed as cAMP accumulation
For test [5], the target named is Beta-3 adrenergic receptor (Canis lupus familiaris) (UniProt O02662). The experiment in a line: Agonist activity at dog cloned adrenergic beta3 receptor assessed as inhibition of carbachol-induced increase in intravesical pressure at 32 ug/kg, iv. The class given is functional.

SMILES strings stand for the structures.

Sequence of Beta-3 adrenergic receptor (Homo sapiens, UniProt P13945) (P13945 whole entry): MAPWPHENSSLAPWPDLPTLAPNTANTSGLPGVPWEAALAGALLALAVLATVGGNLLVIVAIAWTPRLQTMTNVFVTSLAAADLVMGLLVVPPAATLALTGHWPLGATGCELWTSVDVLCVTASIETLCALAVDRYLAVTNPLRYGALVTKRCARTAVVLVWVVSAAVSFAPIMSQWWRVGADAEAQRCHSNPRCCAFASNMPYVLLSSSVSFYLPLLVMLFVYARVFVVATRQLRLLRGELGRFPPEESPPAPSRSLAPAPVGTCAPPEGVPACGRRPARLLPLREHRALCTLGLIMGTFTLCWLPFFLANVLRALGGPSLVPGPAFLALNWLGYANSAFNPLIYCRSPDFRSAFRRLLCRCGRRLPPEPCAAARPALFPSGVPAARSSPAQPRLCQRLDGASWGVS
Sequence of Beta-1 adrenergic receptor (P08588 whole entry): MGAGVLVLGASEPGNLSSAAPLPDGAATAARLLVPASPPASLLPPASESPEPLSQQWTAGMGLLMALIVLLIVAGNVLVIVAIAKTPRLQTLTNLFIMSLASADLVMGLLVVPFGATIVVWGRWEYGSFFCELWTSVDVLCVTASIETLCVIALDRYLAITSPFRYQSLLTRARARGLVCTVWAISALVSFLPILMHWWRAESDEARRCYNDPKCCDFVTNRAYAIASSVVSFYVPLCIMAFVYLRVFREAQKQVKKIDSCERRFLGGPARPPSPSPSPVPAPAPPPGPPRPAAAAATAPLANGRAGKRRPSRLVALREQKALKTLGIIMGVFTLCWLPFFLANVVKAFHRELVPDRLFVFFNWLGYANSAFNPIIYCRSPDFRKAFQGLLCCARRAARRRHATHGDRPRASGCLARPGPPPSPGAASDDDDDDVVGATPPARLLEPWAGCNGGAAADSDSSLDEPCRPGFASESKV
Sequence of Beta-3 adrenergic receptor (Canis lupus familiaris) (O02662 whole entry): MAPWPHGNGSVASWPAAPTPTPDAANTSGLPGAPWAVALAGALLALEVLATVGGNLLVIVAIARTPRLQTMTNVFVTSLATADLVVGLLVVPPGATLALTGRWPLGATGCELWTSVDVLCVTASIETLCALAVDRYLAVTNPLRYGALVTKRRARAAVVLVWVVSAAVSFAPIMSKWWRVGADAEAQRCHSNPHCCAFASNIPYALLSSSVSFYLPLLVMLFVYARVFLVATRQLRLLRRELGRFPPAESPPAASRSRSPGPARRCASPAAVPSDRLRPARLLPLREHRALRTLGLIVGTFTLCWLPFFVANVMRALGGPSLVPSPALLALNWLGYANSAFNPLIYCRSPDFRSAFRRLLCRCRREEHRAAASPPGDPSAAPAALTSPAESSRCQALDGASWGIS
Sequence of Beta-3 adrenergic receptor (Canis lupus familiaris, UniProt O02662) (O02662 whole entry): as above

In general, EC50 refers to the concentration at which the effect is half-maximal. In general, inhibition refers to the drop in the measured response relative to a control, in per cent. On to `CC(C)Oc1ccc(Oc2cccc(CCNC[C@H](O)c3cccc(Cl)c3)c2)cc1C(=O)O`, for which the concentration giving a half-maximal response (EC50) in test [1] came to 3.4 nM; in test [2], 3.2 nM; in test [4], 810 nM. Also, the Ratio EC50 in the test with CHO came out at 238. The inhibition in test [3] is 43%.

With `O=C(O)c1cc(Oc2cccc(CCNC[C@H](O)c3cccc(Cl)c3)c2)ccc1N1CCCC1=O`, the figures for the EC50 in test [1], in test [2] and in test [4] were 6.6 nM, 1.9 nM and over 1000 nM, respectively. In addition, the Ratio EC50 in the test with CHO was over 152. In test [5], the inhibition came to 84%.

Take `COc1ccc(Oc2cccc(CCNC[C@H](O)c3cccnc3)c2)cc1C(=O)O`: the EC50 in test [1] was 56 nM; in test [4], 690 nM. In the test on CHO, the Ratio EC50 is 12.

For the compound `CC(C)(C)C(=O)Nc1ccc(Oc2cccc(CCNC[C@H](O)c3cccc(Cl)c3)c2)cc1C(=O)O`, the concentration giving a half-maximal response (EC50) in test [1] came to 4.6 nM; in test [2], 1.6 nM; in test [4] it was 620 nM. For the same compound, the Ratio EC50 in the test on CHO worked out at 135. Besides, the inhibition in test [5] was determined as 30%.

As to `O=C(O)c1cc(Oc2cccc(CCNC[C@H](O)c3cccc(Cl)c3)c2)ccc1Cl`, the concentration giving a half-maximal response (EC50) in test [1] came out at 9.5 nM; in test [4] it was 64 nM. The Ratio EC50 with CHO was 6.7.

Regarding `COc1ccc(Oc2cccc(CCNC[C@H](O)c3cccc(Cl)c3)c2)cc1C(=O)O`, the half-maximal effective concentration (EC50) in test [1] was 11 nM; in test [4], 510 nM. Moreover, the Ratio EC50 in the test with CHO was determined as 46.

As for `Cc1ccc(Oc2cccc(CCNC[C@H](O)c3cccc(Cl)c3)c2)cc1C(=O)O`, the EC50 in test [1] was determined as 13 nM; in test [4], 550 nM. The Ratio EC50 with CHO turned out to be 42.

As to `CC(=O)Nc1ccc(Oc2cccc(CCNC[C@H](O)c3cccnc3)c2)cc1C(=O)O`, the EC50 in test [1] turned out to be 12 nM; in test [4], 190 nM. Also, the Ratio EC50 in the test with CHO is 16.

With `O=C(O)c1ccc(Oc2cccc(CCNC[C@H](O)c3cccc(Cl)c3)c2)cc1`, the values for the 50% effective concentration (EC50) in test [1] and in test [4] were 60 nM and over 100 nM, respectively.

As to `O=C(Nc1ccc(Oc2cccc(CCNC[C@H](O)c3cccc(Cl)c3)c2)cc1C(=O)O)c1ccccc1`, the results for the EC50 in test [1] and in test [4] were 8.6 nM and 130 nM, respectively. In addition, in the test on CHO, the Ratio EC50 is 15.

In the case of `O=C(O)c1cccc(Oc2cccc(CCNC[C@H](O)c3cccc(Cl)c3)c2)c1`, the half-maximal effective concentration (EC50) in test [1] was 14 nM; in test [4], over 100 nM. Also, the Ratio EC50 in the test with CHO was over 7.1.

As for `O=C(O)c1cc(Oc2cccc(CCNC[C@H](O)c3cccnc3)c2)ccc1F`, the half-maximal effective concentration (EC50) in test [1] turned out to be 31 nM; in test [4], 840 nM. In addition, the Ratio EC50 with CHO stood at 27.

With `CC(=O)Nc1cc(Oc2cccc(CCNC[C@H](O)c3cccc(Cl)c3)c2)cc(C(=O)O)c1`, the concentration giving a half-maximal response (EC50) stood at 6.5 nM in test [1] and 240 nM in test [4]. The Ratio EC50 in the test with CHO was found to be 37.

`CC(=O)Nc1ccc(Oc2cccc(CCNC[C@H](O)c3cccc(Cl)c3)c2)cc1C(=O)O`: the EC50 in test [1] was 7.2 nM; in test [4], 380 nM. The Ratio EC50 in the test on CHO came to 53.

Take `C[C@H](Cc1cccc(Oc2cccc(C(=O)O)c2)c1)NC[C@H](O)c1cccc(Cl)c1`: the half-maximal effective concentration (EC50) in test [1] was 1.9 nM; in test [4], 28 nM. Further, the Ratio EC50 in the test with CHO is 15.

As to `O=C(O)c1cc(NC(=O)c2ccccc2)cc(Oc2cccc(CCNC[C@H](O)c3cccc(Cl)c3)c2)c1`, the EC50 in test [1] is 21 nM; in test [4], 190 nM. For the same compound, the Ratio EC50 in the test with CHO came to 9.

In the case of `O=C(O)c1cc(Oc2cccc(CCNC[C@H](O)c3cccc(Cl)c3)c2)ccc1F`, the EC50 in test [1] is 9.4 nM; in test [4], 140 nM. Also, the Ratio EC50 with CHO turned out to be 15.
